“Also recorded” adds a separate entry of the source.
How the values were obtained:
Assay type in all cases: cell-based, human
[1] = test system: CD4^+ T cells; experiment: intracellular cytokine assay of T cells expanded with synthetic JCV peptides; details: PBMC from healthy volunteers cultured 12-14 days with cytokines
Method: JCV-specific T cells were expanded in vitro following stimulation with pooled JCV epitopes. Specifically, PBMC from healthy volunteers were stimulated with synthetic JCV peptides (Table 1) for 1 hour and then cultured for 12-14 days in the presence of different cytokine combinations, including IL-2 (10 ng/ml), IL7 (10 ng/ml), IL12 (10 ng/ml) and/or IL15 (10 ng/ml). The JCV specificity of the expanded T cells was assessed using standard intracellular cytokine assays (Table 6).

[2] = test system: Peptide-specific T cells; experiment: T cell cross-reactivity between JCV and BKV epitopes (intracellular cytokine assay); details: for BKV cross-reactivity: CD4^+ T cell responses to JCV peptides; for recognition of BKV and JCV peptide by T cells expanded with the epitope: expanded with one epitope, re-stimulated with JCV or BKV epitope, IFN-γ
Description: ICS FACS plots show the expression of IFN-γ in T cells expanded with either BKV epitope (SSGTQQWRGLARYFK (SEQ ID NO: 33)) or JCV epitope (RSGSQQWRGLSRYFK (SEQ ID NO: 12)). These primed T cells were stimulated using both BKV and JCV peptide showing that the T cells expanded with either of these epitopes recognize both BKV and JCV peptide sequences.
Peptide-specific T cells were expanded in vitro following stimulation with JCV epitope or BKV epitope and then re-stimulated with the corresponding […] peptide epitope (see Table 2) so as to observe any cross-reactive response between JCV and BKV epitopes. Specifically, PBMC from healthy volunteers were cultured with synthetic JCV peptide epitope RSGSQQWRGLSRYFK (SEQ ID NO: 12) or with synthetic BKV peptide epitope SSGTQQWRGLARYFK (SEQ ID NO: 33). Following initial expansion, each sample was re-stimulated (re-called) with either JCV epitope RSGSQQWRGLSRYFK (SEQ ID NO: 12) or BKV epitope SSGTQQWRGLARYFK (SEQ ID NO: 33) (wherein samples re-called with the same epitope act as internal controls). The reactivity of the expanded T cells was assessed using standard intracellular cytokine assays (see FIG. 4).

[3] = test system: HLA class II; experiment: HLA class II restriction analysis with peptide-loaded LCLs, IFN-γ ICS assay; details: LCLs matching one single HLA allele of the donor loaded with peptide for 1 hour
Method: Specifically, the HLA class II-restriction of VDLHAFLSQAVFSNR (SEQ ID NO: 2) (LT29), FLSQAVFSNRTVASF (SEQ ID NO: 3) (LT30) and TVASFAVYTTKEKAQ (SEQ ID NO: 4) (LT32) peptides as HLA DRB1*10:01 is shown. Briefly, a panel of lymphoblastoid cells (LCLs) matching one single allele of the HLA type of the donor were chosen and loaded with respective peptide for 1 hour. The loaded LCLs were then used as stimulator cells in an IFN-γ ICS assay. The peptide, when presented by the MHC, elicits an IFN-γ response in JCV-specific T cells. […]

[4] = test system: JCV-specific T cells; experiment: two-dimensional peptide matrix epitope mapping, IFN-γ ICS assay; details: FACS, individual LTA overlapping peptides
Description: JCV-specific T cells expanded in vitro using the OPPs were further characterized by identifying specific T cell determinants. […] The response using the subpools were overlayed on a two dimensional matrix, thus showing the common individual peptides among the pools. […] Figure discloses SEQ ID NOS 2-4, respectively, in order of appearance.
In order to precisely map the HLA class I and class II-restricted T cell responses, individual overlapping peptides (15 aa long overlapping by 10 aa) were sourced for LTA, STA and VP1 proteins for T cell epitope mapping. A two-dimensional peptide matrix was used to distribute all individual peptides into small overlapping peptide pools. For example, in the case of Large T Antigen, the matrix is arranged such that each peptide of the pools (LTA1 to LTA24) occurs once on the ordinate. The T cell response for each pool was measured by intracellular cytokine-staining (ICS) IFN-γ assay (see FIG. 2A) and the data overlayed on a two dimensional matrix as follows.
Thus, the common individual peptides among pools that elicited a T cell response were identified, i.e., peptide 32 (P32) at the intersection of row LTA4 and column LTA16 and peptides P29 and P30 at the intersection of row LTA3 with columns LTA23 and LTA24.

Sequence | %IFNγ^+CD4^+ with 0.1 μg/ml peptide [1] [%] | %IFNγ^+CD4^+ with 1 μg/ml peptide [1] [%] | BKV cross-reactivity [2] | HLA Restriction [3] | recognition of BKV and JCV peptide by T cells expanded with the epitope [2] | T cell response for individual peptide in the IFN-γ ICS assay [4]
TCGNILMWEAVTLKT (listed as Betapolyomavirus secuhominis) | 2.65 | 4.83 | Yes | DRB1*15:01 | – | –
LRSSPLVWIDCYCFD (listed as Betapolyomavirus secuhominis) | 0.4 | 1.81 | – | DRB1*15:01 | – | –
SSGTQQWRGLARYFK | – | – | – | – | recognize both the BKV and JCV peptide sequence | –
SKNQKSICQQAVDTV (listed as Betapolyomavirus secuhominis) [identical BKV homologue] | 0.41 | 2.31 | Yes | DRB1*04:01 &; also recorded: DQB1*02:02 | – | –
GGHNILFFLTPHRHR (listed as Betapolyomavirus secuhominis) | 1.28 | 6.15 | Yes | DRB1*16:O1 | – | –
IDQFMVVFEDVKGTG (listed as Betapolyomavirus secuhominis) | 18.5 | 24.8 | Yes | DRB1*14:04/; also recorded: DQB1*05:03 | – | –
EQYMAGVAWIHCLLP (listed as Betapolyomavirus secuhominis) | 2.5 | 2.9 | Yes | DRB1*04:01 &; also recorded: DRB1*03:01 | – | –
ERLNFELGVGIDQFM (listed as Betapolyomavirus secuhominis) | 2.2 | 6.32 | Yes | DRB1*15:01 | – | –
SICQQAVDTVAAKQR (listed as Betapolyomavirus secuhominis) | 0.24 | 4.38 | Yes | DRB1*04:01 &; also recorded: DQB1*02:02 | – | –
VDLHAFLSQAVFSNR (listed as Betapolyomavirus secuhominis) | 20.26 | 25.49 | Yes | DRB1*10:01 | – | elicit a JCV-specific T cell response
NFLYKKMEQGVKVAH (listed as Betapolyomavirus secuhominis) | 0.2 | 1.2 | – | DRB1*15:01 | – | –
FLSQAVFSNRTVASF (listed as Betapolyomavirus secuhominis) | 34.1 | 38.39 | Yes | DRB1*10:01 | – | elicit a JCV-specific T cell response
MTREEMLVERFNFLL (listed as Betapolyomavirus secuhominis) | 2 | 3.8 | Yes | DRB1*04:01 &; also recorded: DRB1*03:01 | – | –
MDKVLNREESMELMD (listed as Betapolyomavirus secuhominis) [identical BKV homologue] | 1.65 | 5.26 | Yes | DRB1*01:01 | – | –
RNRKFLRSSPLVWID (listed as Betapolyomavirus secuhominis) | 0.6 | 3.03 | – | DRB1*15:01 | – | –
RYWLFKGPIDSGKTT [identical BKV homologue] | 2.35 | 4.05 | Yes | DRB1*15:01 | – | –
SITEVECFLTPEMGD (listed as Betapolyomavirus secuhominis) | 2.8 | 2.71 | Yes | DRB1*01:01 &; also recorded: DQB1*05:01 | – | –
DPDMMRYVDKYGQLQ | 2.1 | 4.5 | Yes | DRB1*04:02 | – | –
KMKRMNFLYKKMEQG (listed as Betapolyomavirus secuhominis) | 0.4 | 1.4 | Yes | DRB1*15:01 | – | –
TVASFAVYTTKEKAQ (listed as Betapolyomavirus secuhominis) | 6.4 | 7.34 | Yes | DRB1*10:01 | – | elicit a JCV-specific T cell response
RSGSQQWRGLSRYFK | 7.8 | 8.4 | Yes | DRB1*11:01 | recognize both the BKV and JCV peptide sequence | –
RKAYLKKCKELHPDK (listed as Betapolyomavirus secuhominis) | 9.2 | 10.4 | Yes | DRB1*13:01 | – | –
